Data set [1] addresses T1, Nuclear receptor subfamily 1 group I member 2 (Homo sapiens, UniProt O75469).
T1 sequence (O75469 whole entry): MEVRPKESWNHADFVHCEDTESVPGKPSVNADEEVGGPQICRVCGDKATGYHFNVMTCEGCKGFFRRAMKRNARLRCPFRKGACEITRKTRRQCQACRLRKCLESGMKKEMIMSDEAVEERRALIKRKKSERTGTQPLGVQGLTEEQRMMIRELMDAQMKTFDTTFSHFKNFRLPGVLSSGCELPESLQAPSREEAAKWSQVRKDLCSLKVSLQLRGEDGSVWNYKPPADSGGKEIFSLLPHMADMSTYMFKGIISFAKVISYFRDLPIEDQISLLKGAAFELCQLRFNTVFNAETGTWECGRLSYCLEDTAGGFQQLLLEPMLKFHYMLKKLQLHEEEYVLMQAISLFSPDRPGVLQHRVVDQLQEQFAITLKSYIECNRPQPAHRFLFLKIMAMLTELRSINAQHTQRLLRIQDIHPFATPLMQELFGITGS
Put plainly: Transactivation of PXR (unknown origin). The class given is ADME.

The next data set concerns the target Cytochrome P450 2C19 (Homo sapiens, UniProt P33261). Put plainly: Inhibition of recombinant CYP2C19 (unknown origin) using fluorogenic substrate preincubated for 15 min followed by NADPH addition measured after 2 hrs by fluorescence method. The class given is ADME.
The target of the next data set is Cytochrome P450 2C9 (Homo sapiens, UniProt P11712). Put plainly: Inhibition of recombinant CYP2C9 (unknown origin) using fluorogenic substrate preincubated for 15 min followed by NADPH addition measured after 2 hrs by fluorescence method. The class given is ADME.
Cytochrome P450 2C9, sequence (P11712 whole entry): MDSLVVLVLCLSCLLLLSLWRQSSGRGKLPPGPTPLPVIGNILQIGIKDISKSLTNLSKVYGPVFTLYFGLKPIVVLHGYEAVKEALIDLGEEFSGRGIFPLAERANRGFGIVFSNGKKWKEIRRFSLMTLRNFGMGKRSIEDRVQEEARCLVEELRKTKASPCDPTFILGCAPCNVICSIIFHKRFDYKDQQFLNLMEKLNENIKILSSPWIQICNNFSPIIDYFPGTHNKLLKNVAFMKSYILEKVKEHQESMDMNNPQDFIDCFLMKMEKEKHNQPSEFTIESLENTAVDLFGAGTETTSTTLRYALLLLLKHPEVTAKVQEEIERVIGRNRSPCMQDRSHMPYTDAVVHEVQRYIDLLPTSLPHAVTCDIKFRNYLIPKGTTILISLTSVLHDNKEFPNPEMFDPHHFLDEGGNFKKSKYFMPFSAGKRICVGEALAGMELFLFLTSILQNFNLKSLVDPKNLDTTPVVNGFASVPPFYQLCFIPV
Data set [2] has as its system Bile acid receptor (Homo sapiens). Put plainly: Agonist activity at human FXR expressed in HEK293 cells coexpressing IBABP relative to GW2064. The following applies: filed as agonist.
The target in data set [3] is T2, Bile acid receptor (Mus musculus, UniProt Q60641).
T2 sequence (Q60641 whole entry): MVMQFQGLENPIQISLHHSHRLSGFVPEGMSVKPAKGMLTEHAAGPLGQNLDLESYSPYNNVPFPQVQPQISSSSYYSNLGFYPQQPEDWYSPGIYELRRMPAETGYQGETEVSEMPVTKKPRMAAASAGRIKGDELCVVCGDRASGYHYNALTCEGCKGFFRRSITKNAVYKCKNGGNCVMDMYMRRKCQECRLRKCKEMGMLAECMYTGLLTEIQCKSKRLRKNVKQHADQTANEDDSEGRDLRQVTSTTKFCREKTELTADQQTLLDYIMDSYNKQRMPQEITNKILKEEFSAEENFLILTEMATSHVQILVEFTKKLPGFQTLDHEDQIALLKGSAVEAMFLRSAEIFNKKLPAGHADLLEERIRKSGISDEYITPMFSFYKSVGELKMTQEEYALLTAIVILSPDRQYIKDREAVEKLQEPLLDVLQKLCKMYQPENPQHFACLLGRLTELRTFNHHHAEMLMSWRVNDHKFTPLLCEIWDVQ
Put plainly: Agonist activity at mouse LBD fused FXR in HEK293 cells incubated for 30 min by envision plate reader method. Format: cell-based.

Data set [4] can be described thus: AUC (total) in Sprague-Dawley rat at 2 mg/kg, po. Format: ADME, organism-based. Also noted: dose 2 mg/kg, route po. The following applies: in vivo.
Data set [5] concerns the target T1, Nuclear receptor subfamily 1 group I member 2. Put plainly: Transactivation of PXR (unknown origin) relative to refampicin. Format: ADME.
Data set [6] can be described thus: Metabolic stability in human liver microsome assessed as parent compound remaining at […] measured after 10 mins. Format: ADME. The following applies: liver microsomes, read-out: Stability. Background: Liver microsomes are vesicles of endoplasmic reticulum, rich in cytochrome P450 enzymes.
Data set [7] can be described thus: Metabolic stability in mouse liver microsome assessed as parent compound remaining at […] measured after 10 mins. The class given is ADME. The following applies: liver microsomes, read-out: Stability.
For the next data set, the target named is Cytochrome P450 3A4 (Homo sapiens, UniProt P08684). Put plainly: Inhibition of CYP3A4 in human liver microsomes using fluorogenic substrate preincubated for 15 min followed by NADPH addition measured after 2 hrs by fluorescence based assay. The class given is ADME, Microsome.
Cytochrome P450 3A4, sequence (P08684 whole entry): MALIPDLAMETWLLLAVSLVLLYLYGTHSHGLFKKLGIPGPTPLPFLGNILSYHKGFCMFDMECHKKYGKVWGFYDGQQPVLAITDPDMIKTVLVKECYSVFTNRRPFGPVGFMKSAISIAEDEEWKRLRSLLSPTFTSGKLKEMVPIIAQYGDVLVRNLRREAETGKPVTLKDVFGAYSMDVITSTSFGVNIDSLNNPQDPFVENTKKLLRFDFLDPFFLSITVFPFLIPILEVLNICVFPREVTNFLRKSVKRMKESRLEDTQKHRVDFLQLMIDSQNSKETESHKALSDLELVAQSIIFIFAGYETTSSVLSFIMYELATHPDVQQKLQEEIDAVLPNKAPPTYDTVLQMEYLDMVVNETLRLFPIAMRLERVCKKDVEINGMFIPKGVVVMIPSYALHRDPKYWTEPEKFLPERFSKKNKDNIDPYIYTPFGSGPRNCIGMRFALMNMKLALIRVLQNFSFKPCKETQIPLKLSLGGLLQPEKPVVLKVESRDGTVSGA
A short description of data set [8]: Volume of distribution at steady state in C57BL6 mouse at 1 mg/kg, iv. The class given is ADME, organism-based. The following applies: in vivo, read-out: Vdss.
The nature of data set [9]: Oral bioavailability in Sprague-Dawley rat at 2 mg/kg. The class given is ADME, organism-based. The following applies: in vivo.
Data set [10] has as its target T3, Bile acid receptor (Homo sapiens) (UniProt Q96RI1).
T3 sequence (whole entry): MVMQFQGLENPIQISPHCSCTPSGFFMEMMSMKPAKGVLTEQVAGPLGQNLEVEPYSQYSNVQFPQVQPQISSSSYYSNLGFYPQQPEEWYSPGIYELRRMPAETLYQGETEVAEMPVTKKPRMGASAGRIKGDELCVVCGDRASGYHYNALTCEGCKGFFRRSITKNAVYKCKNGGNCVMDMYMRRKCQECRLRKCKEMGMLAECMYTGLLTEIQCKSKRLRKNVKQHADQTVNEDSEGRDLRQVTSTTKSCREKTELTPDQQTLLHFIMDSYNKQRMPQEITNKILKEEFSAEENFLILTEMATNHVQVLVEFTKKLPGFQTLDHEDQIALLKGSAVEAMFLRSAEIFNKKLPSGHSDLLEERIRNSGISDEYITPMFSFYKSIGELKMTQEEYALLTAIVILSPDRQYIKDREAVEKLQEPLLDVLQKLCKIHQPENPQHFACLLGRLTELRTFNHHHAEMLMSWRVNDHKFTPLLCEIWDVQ
Put plainly: Agonist activity at LBD-fused human FXR in HEK293 cells incubated for 30 min by envision plate reader method relative to GW2064. Format: cell-based. The following applies: filed as agonist.

Data set [11] has as its target T4, UDP-glucuronosyltransferase 1A1 (Homo sapiens, UniProt P22309).
T4 sequence (P22309 whole entry): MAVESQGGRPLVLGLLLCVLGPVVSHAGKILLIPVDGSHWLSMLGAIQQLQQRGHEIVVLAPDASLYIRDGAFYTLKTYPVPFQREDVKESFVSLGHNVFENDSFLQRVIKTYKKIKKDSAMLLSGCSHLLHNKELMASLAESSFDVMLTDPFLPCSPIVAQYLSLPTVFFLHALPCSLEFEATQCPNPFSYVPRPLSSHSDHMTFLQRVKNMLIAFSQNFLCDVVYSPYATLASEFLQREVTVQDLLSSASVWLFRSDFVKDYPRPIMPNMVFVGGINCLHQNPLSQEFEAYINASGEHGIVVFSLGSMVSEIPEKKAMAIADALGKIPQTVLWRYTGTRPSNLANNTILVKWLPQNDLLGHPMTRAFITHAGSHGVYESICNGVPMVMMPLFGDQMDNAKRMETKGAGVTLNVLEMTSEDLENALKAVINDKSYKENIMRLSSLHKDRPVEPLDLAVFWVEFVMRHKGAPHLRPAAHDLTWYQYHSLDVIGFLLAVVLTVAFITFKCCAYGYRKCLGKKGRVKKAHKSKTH
Put plainly: Inhibition of human UGT1A1.

The target in data set [12] is T5, Bile acid receptor (Homo sapiens, UniProt Q96RI1).
T5 sequence (Q96RI1 whole entry): T3 sequence (whole entry)
Put plainly: Agonist activity at LBD fused human FXR in HEK293 cells incubated for 30 min by envision plate reader method. The class given is cell-based.

The nature of data set [13]: Clearance in Sprague-Dawley rat at 1 mg/kg, iv. The following applies: in vivo. Format: ADME, organism-based.
Data set [14] is described as follows: AUC (total) in C57BL6 mouse at 1 mg/kg, iv. The following applies: in vivo. The class given is ADME, organism-based. Further details: dose 1 mg/kg, route iv.
A short description of data set [15]: Volume of distribution at steady state in Sprague-Dawley rat at 1 mg/kg, iv. The following applies: in vivo, read-out: Vdss. Format: ADME, organism-based.
Data set [16] is described as follows: Oral bioavailability in C57BL6 mouse at 5 mg/kg. Format: ADME, organism-based. The following applies: in vivo.
Data set [17] is described as follows: Clearance in C57BL6 mouse at 1 mg/kg, iv. The class given is ADME, organism-based. The following applies: in vivo.

Experimental findings from ChEMBL document CHEMBL5143714, “Discovery of BMS-986339, a Pharmacologically Differentiated Farnesoid X Receptor Agonist for the Treatment of Nonalcoholic Steatohepatitis” (J Med Chem, 2022) are described below.

Each structure is given as a SMILES string.

Cytochrome P450 2C19, sequence (P33261 whole entry): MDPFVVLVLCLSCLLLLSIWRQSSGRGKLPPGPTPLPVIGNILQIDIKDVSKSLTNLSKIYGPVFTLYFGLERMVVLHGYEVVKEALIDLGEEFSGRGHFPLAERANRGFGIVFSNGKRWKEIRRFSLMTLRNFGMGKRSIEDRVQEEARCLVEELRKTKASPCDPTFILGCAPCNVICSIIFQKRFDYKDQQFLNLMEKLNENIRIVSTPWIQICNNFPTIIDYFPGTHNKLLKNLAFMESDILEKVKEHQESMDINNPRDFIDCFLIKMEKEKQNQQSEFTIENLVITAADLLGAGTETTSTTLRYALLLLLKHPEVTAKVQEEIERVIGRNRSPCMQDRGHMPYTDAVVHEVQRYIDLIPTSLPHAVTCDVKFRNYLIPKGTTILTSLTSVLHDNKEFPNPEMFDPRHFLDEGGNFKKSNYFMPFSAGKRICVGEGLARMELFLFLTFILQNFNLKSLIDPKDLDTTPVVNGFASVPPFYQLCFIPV

The EC50 is the midpoint of the concentration-response curve. Read a low EC50 as a more potent agent. The term IC50 denotes the midpoint of a concentration-inhibition curve. In general, Emax refers to the greatest response seen or fitted, relative to the assay's reference. Broadly, the AUC is concentration integrated over time. A low value points to low exposure. What is called bioavailability is dose-corrected exposure relative to a reference, in per cent. A high value points to much systemic uptake. The clearance is the volume of plasma or blood freed of the substance per unit of time. A higher clearance goes with efficient removal. For `CC(C)(O)c1ccc(-c2cccc(N(CC34CCC(c5noc(C(C)(C)F)n5)(CC3)CC4)C(=O)[C@H]3C[C@](O)(C(F)(F)F)C3)c2)cc1`, the EC50 is 50 µM in data set [1], 0.014 µM at Bile acid receptor [3] and 0.042 µM at Bile acid receptor [12]. Further, the IC50 on Cytochrome P450 2C19 is 7 µM; on Cytochrome P450 2C9, 5 µM; on Cytochrome P450 3A4 it was greater than 20 µM; in data set [11], 1.5 µM. For the same molecule, the Emax was 80% in data set [2], 11% in [5] and 189% in data set [10]. Further, the AUC was 5.8 µM·h in data set [4] and 16.4 µM·h in data set [14]. The remaining at 10 min in data set [6] came to 100%; in [7], 90%. In addition, the Vd worked out at 2.2 L/kg in data set [8] and 5.2 L/kg in [15]. Besides, the bioavailability in data set [9] is 40%; in [16] it was 69%. For the same molecule, the clearance in data set [13] was 4 mL/min/kg; in [17], 1.6 mL/min/kg.
